Measured values taken from ChEMBL document CHEMBL4177767, “Discovery of N2-(4-Amino-cyclohexyl)-9-cyclopentyl- N6-(4-morpholin-4-ylmethyl-phenyl)- 9H-purine-2,6-diamine as a Potent FLT3 Kinase Inhibitor for Acute Myeloid Leukemia with FLT3 Mutations” (J Med Chem, 2018).

How the values were obtained:
MV4-11 = assay: Growth inhibition of human MV4-11 cells after 72 hrs by calcein AM dye-based fluorescence assay; format: functional; conditions: MV4-11, 72 h
MCF7 = assay: cells; conditions: Homo sapiens, MCF7, 72 h
THP-1 = assay: cells; conditions: Homo sapiens, THP-1, 72 h
[1] = target: T1, Receptor-type tyrosine-protein kinase FLT3 (Homo sapiens, UniProt P36888); assay: biochemical; format: cell-based, Sf9
T1 sequence (P36888 whole entry): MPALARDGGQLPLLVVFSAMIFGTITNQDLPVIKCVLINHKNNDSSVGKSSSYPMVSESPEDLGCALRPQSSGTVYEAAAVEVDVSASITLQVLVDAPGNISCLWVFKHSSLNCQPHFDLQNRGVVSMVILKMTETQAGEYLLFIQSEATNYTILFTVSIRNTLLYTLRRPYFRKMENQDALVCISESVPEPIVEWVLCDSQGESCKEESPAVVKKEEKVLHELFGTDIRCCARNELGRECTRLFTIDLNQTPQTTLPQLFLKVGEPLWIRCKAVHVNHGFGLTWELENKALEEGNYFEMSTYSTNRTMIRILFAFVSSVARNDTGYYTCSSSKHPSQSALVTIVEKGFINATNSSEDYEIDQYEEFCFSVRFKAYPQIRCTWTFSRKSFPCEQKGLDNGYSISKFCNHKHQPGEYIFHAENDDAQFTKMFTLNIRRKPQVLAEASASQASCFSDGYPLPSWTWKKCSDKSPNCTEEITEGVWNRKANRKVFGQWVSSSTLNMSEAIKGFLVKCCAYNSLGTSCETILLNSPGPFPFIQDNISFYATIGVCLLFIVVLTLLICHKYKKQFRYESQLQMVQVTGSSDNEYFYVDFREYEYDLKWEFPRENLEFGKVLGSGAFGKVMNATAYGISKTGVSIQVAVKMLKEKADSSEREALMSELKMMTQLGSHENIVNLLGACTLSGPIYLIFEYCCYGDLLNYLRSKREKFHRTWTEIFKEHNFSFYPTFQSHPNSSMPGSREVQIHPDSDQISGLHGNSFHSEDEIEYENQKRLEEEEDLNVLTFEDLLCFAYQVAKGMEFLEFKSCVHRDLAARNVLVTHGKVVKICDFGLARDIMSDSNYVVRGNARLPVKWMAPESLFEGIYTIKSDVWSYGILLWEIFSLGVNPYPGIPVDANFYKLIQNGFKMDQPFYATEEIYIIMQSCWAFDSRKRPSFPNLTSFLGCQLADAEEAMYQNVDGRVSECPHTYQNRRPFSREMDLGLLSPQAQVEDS
Description: Inhibition of N-terminal GST/His6-fused recombinant wild type human FLT3 (R571 to S993 residues) expressed in Sf9 insect cells using poly (Ala,Glu,Lys,Tyr) 6:2:5:1 hydrobromide as substrate in presence of [gamma-33P]ATP

in vitro [2] = conditions: human, HUVEC
K562 = assay: cells; conditions: Homo sapiens, K562, 72 h
Kasumi 1 = assay: cells; conditions: Homo sapiens, Kasumi 1, 72 h
[3] = target: Receptor-type tyrosine-protein kinase FLT3 (Homo sapiens, UniProt P36888, D835Y); assay: biochemical; format: cell-based, Sf9
Description: Inhibition of N-terminal GST/His6-fused recombinant human FLT3 (R571 to S993 residues) D835Y mutant expressed in Sf9 insect cells using poly (Ala,Glu,Lys,Tyr) 6:2:5:1 hydrobromide as substrate in presence of [gamma-33P]ATP

HCC827 = assay: cells; conditions: Homo sapiens, HCC827, 72 h
[4] = target: Receptor-type tyrosine-protein kinase FLT3 (Homo sapiens, UniProt P36888, ITD); assay: biochemical; format: cell-based, Sf9
Description: Inhibition of N-terminal GST/His6-fused recombinant human FLT3 (R571 to S993 residues) ITD mutant expressed in Sf9 insect cells using poly (Ala,Glu,Lys,Tyr) 6:2:5:1 hydrobromide as substrate in presence of [gamma-33P]ATP

U-937 = assay: cells; conditions: Homo sapiens, U-937, 72 h
in vitro [5] = conditions: human, MRC5 cells
MOLM-13 = assay: cells; conditions: Homo sapiens, MOLM-13, 72 h
in vitro [6] = conditions: human, BJ cells

What does the source list for `N[C@H]1CC[C@H](Nc2nc(Nc3ccc(N4CC5(COC5)C4)cc3)c3ncn(C4CCCC4)c3n2)CC1`?
GI50 (MV4-11): 3 nM; GI50 (MCF7): 1060 nM; GI50 (THP-1): 693 nM; IC50 [1]: 13 nM; GI50 at 72 h (in vitro [2]): 5950 nM; GI50 (K562): 1220 nM; GI50 (Kasumi 1): 734 nM; IC50 [3]: 28 nM; GI50 (HCC827): 456 nM; IC50 [4]: 4 nM; GI50 (U-937): 638 nM; GI50 at 72 h (in vitro [5]): 9800 nM; GI50 (MOLM-13): 4 nM; GI50 at 72 h (in vitro [6]): 14600 nM
